# Measured values as given in patent US20240041898A9, “NEUROSTEROIDS AND ENANTIOMERS THEREOF FOR THE PREVENTION AND TREATMENT OF NEURODEGENERATIVE CONDITIONS” (priority 2019, published 2024).
# Where “and” joins values, the source holds several entries; their conditions need not be identical. Equal values may be shown once.
# Tests used:
# TUNEL-positive RGCs [1] = test: Rat in vivo OHT model, TUNEL staining; details: OHT eyes, intravitreal, three weeks after bead injection; single values
# Procedure: Example 7. Rat in vivo OHT model induced by intracameral injection of microbeads—For induction of ocular hypertension (OHT) in vivo, sterile 6 μm polystyrene microbeads were injected into the anterior chamber of the left eye of each animal using a single-step, sclero-corneal tunnel approach with a 35G nanoneedle (FIG. 4A). […] After stabilization of elevated IOP, animals were randomly divided into 3 groups (non-treated OHT, AlloP injection, and ent-AlloP injection). AlloP and ent-AlloP were administered as a one-time intravitreal injection one week following bead injection. Non-treated OHT animals received sterile vehicle intravitreally. […]
# Apoptosis—To visualize apoptotic cells, a DeadEnd™ Colorimetric TUNEL (TdT-mediated dUTP Nick-End Labeling) System (Promega, Madison, WI) was used according to the manufacturer's instructions. […] After the length of each retinal section was measured (Image-Pro Plus software), the cells were counted in the whole section length and the number of cells was normalized per 200 μm of retinal section. The number of apoptotic cells was evaluated by Dunnett's multiple comparison test to determine changes in the density of apoptotic cells among experimental retinas treated with 1 μM AlloP or 1 μM ent-AlloP at 75 mmHg and control retinas incubated with aCSF at 75 mmHg. […]
# TUNEL-positive RGCs [2] = test: Ex vivo pressure-loaded retinas, TUNEL staining (apoptosis); assay type: cell-based, rat; details: 75 mmHg, 1 μM, single values
# Procedure: Rat ex vivo Eyecup Preparation—Rat ex vivo eyecups were prepared from 28-32 day old male Sprague-Dawley rats (Charles River Laboratories International Inc., Wilmington, MA). The anterior half of the enucleated eyes was carefully removed to make eyecup preparations. Eyecups were placed at the bottom of a 100 ml glass beaker filled with aCSF (artificial cerebrospinal fluid) containing (in mM): 124 NaCl, 5 KCl, 2 MgSO4, 2 CaCl2, 1.25 NaH2PO4, 22 NaHCO3, and 10 glucose, and incubated at 30° C. for 24 hours using a closed pressure-loading system (FIG. 1C). pH was maintained at 7.35 to 7.40. […]
# Acutely prepared eyecups were incubated in gassed aCSF for at least 1 h at 30° C. before pressure loading. […] For pressure loading, the 95% O2-5% CO2 gas mixture was infused until the pressure reading given by a manometer reached the appropriate level. The pressure was then locked by adjusting the control dial of the effusion valve, and monitored continuously for 24 h at 30° C.
# Apoptosis—To visualize apoptotic cells, a DeadEnd™ Colorimetric TUNEL (TdT-mediated dUTP Nick-End Labeling) System (Promega, Madison, WI) was used according to the manufacturer's instructions. […] After the length of each retinal section was measured (Image-Pro Plus software), the cells were counted in the whole section length and the number of cells was normalized per 200 μm of retinal section. […]
# GABAA receptors = details: cited from earlier work
Compound,"TUNEL staining (FIG. 4I), number of TUNEL-positive RGCs, individual 1-5 (TUNEL-positive RGCs [1])","TUNEL Staining (number of TUNEL-positive RGCs), individual areas 1-5 (TUNEL-positive RGCs [2])",action on GABAA receptors (GABAA receptors)
"CC(=O)[C@H]1CC[C@H]2[C@@H]3CC[C@H]4C[C@H](O)CC[C@]4(C)[C@H]3CC[C@]12C [AlloP, allopregnanolone]",1 per 200 μm of retinal sections (2×) and 0 per 200 μm of retinal sections (3×),7 per 200 μm of retina section and 0 per 200 μm of retina section (3×) and 2 per 200 μm of retina section,strong enhancer
"CC(=O)[C@@H]1CC[C@@H]2[C@H]3CC[C@@H]4C[C@@H](O)CC[C@@]4(C)[C@@H]3CC[C@]21C [ent-AlloP, ent-allopregnanolone]",1 per 200 μm of retinal sections (2×) and 0 per 200 μm of retinal sections (3×),10 per 200 μm of retina section and 1 per 200 μm of retina section and 0 per 200 μm of retina section (2×) and 2 per 200 μm of retina section,weak actions
